Experiments:
Assay type in all cases: biochemical
[1] = biological target: T1, ATX (autotaxin) (Homo sapiens, UniProt Q13822); experiment: Autotaxin Inhibition Screening Assay (choline release from LPC, LPC-CR); conditions: for inhibition at 4 µM: 4 μM compound; for inhibition at 20 µM: 20 μM compound; for inhibition at 50 µM: 50 μM compound
T1 construct: purchased Cayman 10803
Protocol: ATX (autotaxin) activity was measured by choline release from LPC in presence or absence of test compounds (Compounds 1˜83; at concentrations of 4 μM, 20 μM and 50 μM). Twenty (20) ng ATX (10803, Cayman, MI, USA) was incubated with 100 μM 14:0 LPC (855575P, Avanti, AL, USA) in a final volume of 100 μL buffer containing 50 mM Tris pH 8.0, 0.01% Triton X-100, 50 mM CaCl2, 1 unit/ml choline oxidase, 2 unit/ml horseradish peroxidase (HRP), 2 mM homovanilic acid (HVA). The relative amount of released choline was measured by HVA fluorescence in a 96-well plate. Fluorescent intensity was determined at λex/λem=320/450 nm every 60 sec for 90 min with a SpectraMax i3 (Molecular Devices, CA, USA). Data analysis was performed using GraphPad Prism (GraphPad, La Jolla CA, USA). Inhibition %=[1−(SlopeTA−SlopeBlank)/(SlopeVehicle−SlopeBlank)]×100% HDAC Inhibition Screening Assay

[2] = biological target: T2, HDAC2 (Homo sapiens, UniProt Q92769); experiment: HDAC Inhibition Screening Assay (FLUOR DE LYS Fluorimetric Drug Discovery Kit), HDAC2; conditions: for inhibition at 2 µM: 2 μM compound; for inhibition at 10 µM: 10 μM compound; for inhibition at 50 µM: 50 μM compound
T2 construct: purchased Enzo Life Sciences
Protocol: (§1) The HDAC1/HDAC2/HDAC3 in vitro activities are detected by Enzo Life Sciences' HDAC1/HDAC2/HDAC3 Fluorimetric Drug Discovery Kit. The assay is based on the FLUOR DE LYS® Substrate and FLUOR DE LYS® Developer combination. The assay procedure has two steps. First, the FLUOR DE LYS® Substrate, which comprises an acetylated lysine side chain, is incubated with HDAC1/HDAC2/HDAC3, respectively. Deacetylation of the substrate sensitizes the substrate so that, in the second step, treatment with the FLUOR DE LYS® Developer produces a fluorophore. The signals of the test compounds (Compounds 1˜83; at concentrations of 2 μM, 10 μM and 50 μM) in 96-well plates are detected at 360 nm or 485 nm excitation and 460 nm or 530 nm emission with a Molecular Devices SpectraMax i3 Imaging Cytometer. The HDAC1/HDAC2/HDAC3 activities are expressed in percentage of basal control minus baseline control.

[3] = biological target: T3, HDAC1 (Homo sapiens, UniProt Q13547); experiment: HDAC Inhibition Screening Assay (FLUOR DE LYS Fluorimetric Drug Discovery Kit), HDAC1; conditions: for inhibition at 2 µM: 2 μM compound; for inhibition at 10 µM: 10 μM compound; for inhibition at 50 µM: 50 μM compound
T3 construct: purchased Enzo Life Sciences
Protocol: as §1

[4] = biological target: T4, HDAC3 (Homo sapiens, UniProt O15379); experiment: HDAC Inhibition Screening Assay (FLUOR DE LYS Fluorimetric Drug Discovery Kit), HDAC3; conditions: for inhibition at 2 µM: 2 μM compound; for inhibition at 10 µM: 10 μM compound; for inhibition at 50 µM: 50 μM compound
T4 construct: purchased Enzo Life Sciences
Protocol: as §1

T4 sequence (O15379 whole entry): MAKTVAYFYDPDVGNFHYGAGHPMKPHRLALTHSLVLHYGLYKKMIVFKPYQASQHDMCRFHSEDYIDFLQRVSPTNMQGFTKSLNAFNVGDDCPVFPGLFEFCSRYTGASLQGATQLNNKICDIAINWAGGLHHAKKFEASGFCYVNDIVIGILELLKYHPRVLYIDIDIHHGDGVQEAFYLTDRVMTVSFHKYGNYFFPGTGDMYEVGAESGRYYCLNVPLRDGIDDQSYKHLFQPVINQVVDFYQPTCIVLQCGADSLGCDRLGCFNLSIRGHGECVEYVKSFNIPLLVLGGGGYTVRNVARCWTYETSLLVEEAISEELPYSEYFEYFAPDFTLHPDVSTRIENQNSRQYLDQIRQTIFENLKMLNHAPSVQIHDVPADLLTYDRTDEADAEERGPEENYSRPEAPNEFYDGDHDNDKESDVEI
T4 sequence (O75376 395-489 partner limits assumed): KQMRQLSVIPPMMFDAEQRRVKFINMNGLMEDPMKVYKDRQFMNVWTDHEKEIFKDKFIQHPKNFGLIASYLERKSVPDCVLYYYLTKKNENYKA
T3 sequence (Q13547 whole entry): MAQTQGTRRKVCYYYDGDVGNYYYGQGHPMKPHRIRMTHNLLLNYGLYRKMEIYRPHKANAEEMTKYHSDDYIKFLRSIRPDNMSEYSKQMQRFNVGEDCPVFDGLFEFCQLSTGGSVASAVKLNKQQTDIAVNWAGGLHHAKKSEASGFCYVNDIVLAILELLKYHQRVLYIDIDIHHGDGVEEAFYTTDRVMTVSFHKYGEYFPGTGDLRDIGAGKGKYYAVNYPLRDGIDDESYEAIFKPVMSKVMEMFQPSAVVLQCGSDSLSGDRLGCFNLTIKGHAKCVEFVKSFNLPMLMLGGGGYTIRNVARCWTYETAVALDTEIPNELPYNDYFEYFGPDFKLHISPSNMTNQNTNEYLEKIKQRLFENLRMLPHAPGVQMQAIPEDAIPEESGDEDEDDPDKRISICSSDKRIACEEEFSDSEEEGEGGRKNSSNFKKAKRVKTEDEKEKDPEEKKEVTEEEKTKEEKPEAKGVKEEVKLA
T2 sequence (Q92769 whole entry): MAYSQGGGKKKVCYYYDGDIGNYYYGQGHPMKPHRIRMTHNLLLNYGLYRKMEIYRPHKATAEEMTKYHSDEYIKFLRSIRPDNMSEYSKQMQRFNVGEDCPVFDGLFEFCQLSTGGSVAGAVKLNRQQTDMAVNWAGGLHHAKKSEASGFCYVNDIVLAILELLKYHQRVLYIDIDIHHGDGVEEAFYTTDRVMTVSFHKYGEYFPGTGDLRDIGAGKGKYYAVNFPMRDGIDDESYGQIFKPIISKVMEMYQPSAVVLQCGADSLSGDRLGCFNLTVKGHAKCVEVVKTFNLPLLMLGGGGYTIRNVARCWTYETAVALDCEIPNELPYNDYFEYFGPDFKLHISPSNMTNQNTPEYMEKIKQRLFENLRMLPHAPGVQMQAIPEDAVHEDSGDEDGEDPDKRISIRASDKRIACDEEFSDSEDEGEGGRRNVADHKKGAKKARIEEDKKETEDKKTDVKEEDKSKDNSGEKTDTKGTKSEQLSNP

| inhibition at 4 µM [1] | inhibition at 20 µM [1] | inhibition at 50 µM [1] | inhibition at 2 µM [2] | inhibition at 10 µM [2] | inhibition at 50 µM [2] | inhibition at 2 µM [3] | inhibition at 10 µM [3] | inhibition at 50 µM [3] | inhibition at 2 µM [4] | inhibition at 10 µM [4] | inhibition at 50 µM [4] | SMILES |
| --- | --- | --- | --- | --- | --- | --- | --- | --- | --- | --- | --- | --- |
| < 50% | < 50% | < 50% | > 80% | > 80% | > 80% | > 80% | > 80% | > 80% | > 80% | > 80% | > 80% | O=C(CCCCCCC(=O)Nc1ccc2c(c1)CCCC2=O)NO [Compound 1, N^1-hydroxy-N^8-(5-oxo-5,6,7,8-tetrahydronaphthalen-2-yl)octanediamide] |
| < 50% | < 50% | < 50% | > 80% | > 80% | > 80% | > 80% | > 80% | > 80% | > 80% | > 80% | > 80% | O=C(CCCCCCC(=O)Nc1ccc2c(c1)CCCC2O)NO (stereo not drawn) [Compound 2, N^1-hydroxy-N^8-(5-hydroxy-5,6,7,8-tetrahydronaphthalen-2-yl)octanediamide] |
| < 50% | < 50% | < 50% | > 80% | > 80% | > 80% | > 80% | > 80% | > 80% | > 80% | > 80% | > 80% | O=C(CCCCCCC(=O)Nc1ccc2c(c1)CCC/C2=N\O)NO [Compound 3, (E)-N1-hydroxy-N8-(5-(hydroxyimino)-5,6,7,8-tetrahydronaphthalen-2-yl)octanediamide] |
| > 80% | > 80% | > 80% | 50 to 80% | > 80% | > 80% | 50 to 80% | > 80% | > 80% | < 50% | 50 to 80% | > 80% | O=C(CCCCCCC(=O)Nc1ccc2c(c1)CC/C(=C\c1cc(C(F)(F)F)cc(C(F)(F)F)c1)C2=O)NO [Compound 4] |
| 50 to 80% | 50 to 80% | 50 to 80% | < 50% | < 50% | < 50% | < 50% | < 50% | < 50% | < 50% | < 50% | < 50% | Nc1cc(F)ccc1NC(=O)CCCCCCC(=O)Nc1ccc2c(c1)CC/C(=C\c1cc(C(F)(F)F)cc(C(F)(F)F)c1)C2=O [Compound 5, (E)-N1-(2-amino-4-fluorophenyl)-N8-(6-(3,5-bis(trifluoromethyl)benzylidene)-5-oxo-5,6,7,8-tetrahydronaphthalen-2-yl)octanediamide] |
| 50 to 80% | 50 to 80% | 50 to 80% | < 50% | < 50% | < 50% | < 50% | < 50% | < 50% | < 50% | < 50% | < 50% | Nc1cc(F)ccc1NC(=O)/C=C/c1ccc2c(c1)CC/C(=C\c1cc(C(F)(F)F)cc(C(F)(F)F)c1)C2=O [Compound 6, (E)-N-(2-amino-4-fluorophenyl)-3-(6-((E)-3,5-bis(trifluoromethyl)benzylidene)-5-oxo-5,6,7,8-tetrahydronaphthalen-2-yl)acrylamide] |
